Like-named read-outs stand apart in the source and are kept apart here.
Assays:
ABCC1/MRP1 = ABCC1/MRP1 (Homo sapiens, UniProt P33527); test: in vitro
OATP2B1 [1] = target: T1, OATP2B1 (Homo sapiens, UniProt O94956); test: in vitro; conditions: A431 cells overexpressing OATP2B1, pH 5.5, probe pyranine, 20 µM
T1 sequence (O94956 1-709): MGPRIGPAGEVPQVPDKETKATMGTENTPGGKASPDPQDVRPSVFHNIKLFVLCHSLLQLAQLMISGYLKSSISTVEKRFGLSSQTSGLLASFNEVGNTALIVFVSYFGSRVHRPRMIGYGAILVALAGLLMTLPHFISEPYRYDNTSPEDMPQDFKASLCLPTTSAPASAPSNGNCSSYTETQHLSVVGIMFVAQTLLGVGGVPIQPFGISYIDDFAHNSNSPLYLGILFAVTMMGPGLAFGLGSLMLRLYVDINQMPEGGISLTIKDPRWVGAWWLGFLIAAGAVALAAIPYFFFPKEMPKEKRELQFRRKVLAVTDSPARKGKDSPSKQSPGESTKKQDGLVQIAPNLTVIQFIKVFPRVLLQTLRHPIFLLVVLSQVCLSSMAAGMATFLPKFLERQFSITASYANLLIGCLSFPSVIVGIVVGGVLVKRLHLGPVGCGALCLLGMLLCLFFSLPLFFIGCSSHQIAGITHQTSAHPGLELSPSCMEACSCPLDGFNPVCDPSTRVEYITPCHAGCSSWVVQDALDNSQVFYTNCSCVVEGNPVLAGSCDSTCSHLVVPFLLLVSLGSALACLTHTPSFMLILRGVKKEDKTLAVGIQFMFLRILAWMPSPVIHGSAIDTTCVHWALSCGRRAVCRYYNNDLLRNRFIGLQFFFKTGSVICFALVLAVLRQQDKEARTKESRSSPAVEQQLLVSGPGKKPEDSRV

OATP2B1 [2] = target: T1, OATP2B1; conditions: A431-OATP2B1 cells, pyranine uptake
ABCB1/MDR1/Pgp = ABCB1/MDR1/Pgp (Homo sapiens, UniProt P08183); test: in vitro
OATP1A2 [3] = target: T2, OATP1A2 (Homo sapiens, UniProt P46721); test: cell-based
T2 sequence (P46721 1-670): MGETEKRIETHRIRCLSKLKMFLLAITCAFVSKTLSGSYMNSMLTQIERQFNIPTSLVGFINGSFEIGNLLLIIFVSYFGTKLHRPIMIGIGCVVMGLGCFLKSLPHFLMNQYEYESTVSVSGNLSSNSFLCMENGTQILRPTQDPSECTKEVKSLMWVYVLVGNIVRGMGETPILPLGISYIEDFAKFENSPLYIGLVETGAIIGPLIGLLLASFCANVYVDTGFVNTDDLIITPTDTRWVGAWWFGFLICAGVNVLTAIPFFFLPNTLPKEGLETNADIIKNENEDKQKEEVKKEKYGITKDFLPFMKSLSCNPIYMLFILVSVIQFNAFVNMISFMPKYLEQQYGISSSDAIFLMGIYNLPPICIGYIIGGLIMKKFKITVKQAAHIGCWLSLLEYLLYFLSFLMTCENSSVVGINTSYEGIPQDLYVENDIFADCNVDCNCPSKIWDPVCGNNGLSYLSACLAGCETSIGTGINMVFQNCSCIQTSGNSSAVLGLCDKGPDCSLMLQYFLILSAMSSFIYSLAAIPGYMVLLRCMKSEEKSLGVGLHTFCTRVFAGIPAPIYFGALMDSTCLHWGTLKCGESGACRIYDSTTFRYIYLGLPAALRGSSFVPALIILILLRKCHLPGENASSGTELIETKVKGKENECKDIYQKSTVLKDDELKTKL

ABCB1/Pgp = target: T3, ABCB1/Pgp (Homo sapiens, UniProt P08183); test: ABCB1-ATPase activity in Sf9 membrane vesicles; assay type: biochemical
T3 construct: made in house; host or cells: Sf9 insect cells
Experimental: ABC transporter ATPase activity was measured in Sf9 membrane vesicles containing the respective human ABC transporters. For ABCG2/BCRP, the cholesterol level in the vesicles was increased to the level of mammalian cell membranes for full activity. For ABCB1/Pgp 20 μg/150 μL and for ABCG2/BCRP 10 μg/150 μL, vesicles were incubated with 3 mM Mg-ATP for 25 min at 37 °C. The test drugs were dissolved in DMSO and 1 µL was added to the samples. The ABC transporter-related ATPase activity was determined and reference activators (50 µM verapamil for ABCB1 and 5 µM quercetin for ABCG2) served as controls.
Drug-stimulated ATPase activity of the ABCB1 transporter is a well-documented functional assay employed to estimate the substrate or inhibitory features of various drugs. […] In this assay, most transported substrates show a biphasic curve: Low concentrations stimulate, while higher concentrations inhibit, the ATPase activity. In these experiments, we measured the vanadate-sensitive (ABC transporter-related) ABCB1-ATPase activity in membrane vesicles isolated from ABCB1 overexpressing Sf9 cells.

OATP2B1 [4] = target: T1, OATP2B1; test: cell-based
[5] = cited from earlier work
OATP1A2 [6] = target: T2, OATP1A2; conditions: based on the IC50 values

T3 sequence (P08183 whole entry): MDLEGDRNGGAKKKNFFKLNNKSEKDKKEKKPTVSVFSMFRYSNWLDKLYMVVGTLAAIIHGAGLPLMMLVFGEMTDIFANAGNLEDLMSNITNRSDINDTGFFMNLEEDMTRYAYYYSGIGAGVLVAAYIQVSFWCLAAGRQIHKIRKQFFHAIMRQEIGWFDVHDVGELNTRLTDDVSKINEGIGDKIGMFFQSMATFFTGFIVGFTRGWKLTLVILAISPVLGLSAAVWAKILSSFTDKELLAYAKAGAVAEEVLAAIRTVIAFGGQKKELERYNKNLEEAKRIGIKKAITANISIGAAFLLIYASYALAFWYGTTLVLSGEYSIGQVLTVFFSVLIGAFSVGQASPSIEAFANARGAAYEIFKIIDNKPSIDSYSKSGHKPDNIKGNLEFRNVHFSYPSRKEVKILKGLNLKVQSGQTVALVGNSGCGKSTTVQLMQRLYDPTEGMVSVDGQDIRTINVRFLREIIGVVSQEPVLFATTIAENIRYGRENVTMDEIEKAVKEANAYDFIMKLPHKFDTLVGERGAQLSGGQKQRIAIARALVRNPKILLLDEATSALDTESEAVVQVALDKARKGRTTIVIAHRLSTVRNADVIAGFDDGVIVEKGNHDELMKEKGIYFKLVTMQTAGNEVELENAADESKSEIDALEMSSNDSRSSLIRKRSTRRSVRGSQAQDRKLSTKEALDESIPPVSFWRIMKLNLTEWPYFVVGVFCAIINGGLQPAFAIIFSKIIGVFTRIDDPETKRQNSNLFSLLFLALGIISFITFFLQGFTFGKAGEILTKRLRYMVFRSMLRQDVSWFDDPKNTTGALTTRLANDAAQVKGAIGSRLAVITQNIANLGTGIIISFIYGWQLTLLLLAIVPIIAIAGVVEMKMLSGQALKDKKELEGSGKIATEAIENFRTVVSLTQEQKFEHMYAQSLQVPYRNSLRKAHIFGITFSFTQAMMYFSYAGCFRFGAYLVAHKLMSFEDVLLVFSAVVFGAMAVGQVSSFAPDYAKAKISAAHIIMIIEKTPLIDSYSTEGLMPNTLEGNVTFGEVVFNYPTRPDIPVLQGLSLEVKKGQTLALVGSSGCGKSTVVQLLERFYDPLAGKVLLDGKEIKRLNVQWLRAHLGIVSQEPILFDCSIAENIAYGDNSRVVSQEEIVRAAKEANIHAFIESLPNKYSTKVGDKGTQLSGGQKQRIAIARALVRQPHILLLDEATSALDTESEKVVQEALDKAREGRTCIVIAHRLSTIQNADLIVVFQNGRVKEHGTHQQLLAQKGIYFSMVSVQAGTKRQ
Sequence of ABCC1/MRP1 (P33527 whole entry): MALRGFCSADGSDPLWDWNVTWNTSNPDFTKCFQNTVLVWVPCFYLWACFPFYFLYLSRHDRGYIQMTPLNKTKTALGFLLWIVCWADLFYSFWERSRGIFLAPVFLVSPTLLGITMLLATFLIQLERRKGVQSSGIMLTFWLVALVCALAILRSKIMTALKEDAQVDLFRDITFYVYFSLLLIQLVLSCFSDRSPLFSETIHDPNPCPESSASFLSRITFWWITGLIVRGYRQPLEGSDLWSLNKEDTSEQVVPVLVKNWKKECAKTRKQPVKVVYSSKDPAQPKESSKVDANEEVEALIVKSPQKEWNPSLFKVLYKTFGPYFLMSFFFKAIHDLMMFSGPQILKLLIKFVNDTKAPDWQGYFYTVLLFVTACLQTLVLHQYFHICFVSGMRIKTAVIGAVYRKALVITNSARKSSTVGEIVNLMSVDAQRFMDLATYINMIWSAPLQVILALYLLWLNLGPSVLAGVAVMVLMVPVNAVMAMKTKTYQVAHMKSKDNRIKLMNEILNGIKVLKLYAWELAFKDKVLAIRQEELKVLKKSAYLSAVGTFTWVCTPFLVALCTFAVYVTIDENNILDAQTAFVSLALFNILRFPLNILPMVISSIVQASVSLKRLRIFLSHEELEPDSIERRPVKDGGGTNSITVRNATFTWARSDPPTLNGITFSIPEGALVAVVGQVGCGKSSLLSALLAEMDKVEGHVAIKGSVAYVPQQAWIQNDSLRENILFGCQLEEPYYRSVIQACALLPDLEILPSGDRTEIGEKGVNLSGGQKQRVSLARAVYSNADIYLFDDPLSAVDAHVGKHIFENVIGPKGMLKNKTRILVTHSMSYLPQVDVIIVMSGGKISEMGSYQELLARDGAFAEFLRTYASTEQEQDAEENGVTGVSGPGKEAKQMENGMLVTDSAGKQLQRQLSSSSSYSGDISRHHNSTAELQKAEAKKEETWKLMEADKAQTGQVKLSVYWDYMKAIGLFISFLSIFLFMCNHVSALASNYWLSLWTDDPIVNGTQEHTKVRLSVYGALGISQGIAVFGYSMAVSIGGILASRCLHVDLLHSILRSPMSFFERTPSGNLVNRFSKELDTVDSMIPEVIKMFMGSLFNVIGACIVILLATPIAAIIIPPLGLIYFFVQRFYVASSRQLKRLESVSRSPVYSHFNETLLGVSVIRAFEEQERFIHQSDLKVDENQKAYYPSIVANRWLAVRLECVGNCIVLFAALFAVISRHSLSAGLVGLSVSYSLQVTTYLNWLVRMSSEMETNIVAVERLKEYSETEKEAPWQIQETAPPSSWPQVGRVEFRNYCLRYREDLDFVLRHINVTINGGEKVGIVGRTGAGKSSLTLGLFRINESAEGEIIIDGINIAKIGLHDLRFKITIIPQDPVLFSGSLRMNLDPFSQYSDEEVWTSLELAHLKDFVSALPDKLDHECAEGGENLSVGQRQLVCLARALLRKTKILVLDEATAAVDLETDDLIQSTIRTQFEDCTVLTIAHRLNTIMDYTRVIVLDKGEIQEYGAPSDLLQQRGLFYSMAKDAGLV
Sequence of ABCB1/MDR1/Pgp (P08183 whole entry): as the sequence (P08183 whole entry) above

NC(=O)c1nc(F)c[nH]c1=O [favipiravir]
IC50 at 3 min (ABCC1/MRP1; inverted membrane vesicles from Sf9 cells expressing ABCC1, probe 3H-estradiol-17b-glucuronide (ETGB), 0.2 µM): > 50 µM
IC50 at 15 min (OATP2B1 [1]): > 50 µM
Effect on OATP2B1 activity (in words) (OATP2B1 [2]): no interaction
IC50 at 1 min (ABCB1/MDR1/Pgp; probe 3H-N-methyl-quinidine (NMQ), 1 µM): > 50 µM

CCC(CC)COC(=O)[C@H](C)N[P@](=O)(OC[C@H]1O[C@@](C#N)(c2ccc3c(N)ncnn23)[C@H](O)[C@@H]1O)Oc1ccccc1 [remdesivir]
IC50 (OATP1A2 [3]): 3.8 µM
EC50 (ABCB1/Pgp): ~10 µM
Concentration at which ABCB1-ATPase activity was increased (ABCB1/Pgp; Sf9/ABCB1 membranes): 10 to 50 µM
Effect on ABCB1-ATPase activity (in words) (ABCB1/Pgp; Sf9/ABCB1 membranes, 50 µM verapamil as reference activator): significant ABCB1-ATPase stimulation
IC50 (OATP2B1 [4]): 3.8 µM
Plasma concentration, peak values [5]: 3 to 5 µM
Reported peak plasma concentration ([5]; reported, reference not given): about 5 μM

CCN(CCO)CCCC(C)Nc1ccnc2cc(Cl)ccc12 (centres unmarked) [hydroxychloroquine]
IC50 at 3 min (ABCC1/MRP1): > 50 µM
IC50 (OATP1A2 [3]): 18.9 µM
IC50 (OATP2B1 [4]): 84 µM
Effect on OATP2B1 activity (in words) (OATP2B1 [2]): only modest inhibition
IC50 at 1 min (ABCB1/MDR1/Pgp; Estimated Transporter Inhibition IC50, ABCB1 vesicular assay, ATP-dependent NMQ uptake, HEK-293/ABCB1 inverted membrane vesicles, '-' = no inhibition): > 50 µM
Fold lower affinity for OATP1A2 than lopinavir, ritonavir, remdesivir and ivermectin (OATP1A2 [6]): 3–10 fold
